{"source": "patent US20220133782A1", "about": "“METHODS AND COMPOSITIONS FOR USING CINNAMALDEHYDE AND ZINC FOR WEIGHT MANAGEMENT” (SOCIÉTÉ DES PRODUITS NESTLÉ S.A., priority 2014, published 2022)", "key": {"[1]": {"assay": "Nose temperature after ingestion in human subjects", "type": "in vivo", "details": "fifteen minutes following ingestion, FIG. 7", "experimental": "The nose temperature of the subjects was analyzed over the fifteen minutes following ingestion of the various compounds."}, "[2]": {"assay": "Comparative taste testing in human subjects", "type": "in vivo", "details": "4.8 ppm capsaicin or 350 ppm cinnamaldehyde, FIG. 9", "experimental": "Human subjects were administered a composition comprising 4.8 ppm capsaicin or 350 ppm cinnamaldehyde. […] 87.9% of the participants judged capsaicin intense to very intense, compared to only 20.5% for cinnamaldehyde. To achieve a similar effect on fat oxidation of capsaicin and cinnamaldehyde, the dose of capsaicin is about 1.5 times less than the maximum that can be used as a flavor (7 ppm according to Fenaroli's Handbook; Burdock, 2010), and the dose of cinnamaldehyde is about 17.5 times less than the maximum that can be used as a flavor (6191.0 ppm according to Fenaroli's Handbook; Burdock, 2010)."}, "[3]": {"assay": "Chin temperature after ingestion in human subjects (sympathetic autonomic activity)", "type": "in vivo", "details": "for AUC difference in chin temperature relative to placebo: Z10, comparison vs Pl (placebo)", "experimental": "The chin temperature of the subjects was measured over the eighty minutes following ingestion of the various compounds. […] The increased sympathetic activity identified by measuring the facial temperature (increased blood flow on the chin) might explain the increased energy expenditure measured by indirect calorimetry."}, "[4]": {"assay": "Postprandial fat oxidation after ingestion in human subjects", "type": "in vivo", "experimental": "The postprandial fat oxidation was measured over the 90 minutes following ingestion of the various compounds."}, "[5]": {"target": "TRPM8 (Homo sapiens, UniProt Q7Z2W7)", "sequence (Q7Z2W7 whole entry, species assumed)": "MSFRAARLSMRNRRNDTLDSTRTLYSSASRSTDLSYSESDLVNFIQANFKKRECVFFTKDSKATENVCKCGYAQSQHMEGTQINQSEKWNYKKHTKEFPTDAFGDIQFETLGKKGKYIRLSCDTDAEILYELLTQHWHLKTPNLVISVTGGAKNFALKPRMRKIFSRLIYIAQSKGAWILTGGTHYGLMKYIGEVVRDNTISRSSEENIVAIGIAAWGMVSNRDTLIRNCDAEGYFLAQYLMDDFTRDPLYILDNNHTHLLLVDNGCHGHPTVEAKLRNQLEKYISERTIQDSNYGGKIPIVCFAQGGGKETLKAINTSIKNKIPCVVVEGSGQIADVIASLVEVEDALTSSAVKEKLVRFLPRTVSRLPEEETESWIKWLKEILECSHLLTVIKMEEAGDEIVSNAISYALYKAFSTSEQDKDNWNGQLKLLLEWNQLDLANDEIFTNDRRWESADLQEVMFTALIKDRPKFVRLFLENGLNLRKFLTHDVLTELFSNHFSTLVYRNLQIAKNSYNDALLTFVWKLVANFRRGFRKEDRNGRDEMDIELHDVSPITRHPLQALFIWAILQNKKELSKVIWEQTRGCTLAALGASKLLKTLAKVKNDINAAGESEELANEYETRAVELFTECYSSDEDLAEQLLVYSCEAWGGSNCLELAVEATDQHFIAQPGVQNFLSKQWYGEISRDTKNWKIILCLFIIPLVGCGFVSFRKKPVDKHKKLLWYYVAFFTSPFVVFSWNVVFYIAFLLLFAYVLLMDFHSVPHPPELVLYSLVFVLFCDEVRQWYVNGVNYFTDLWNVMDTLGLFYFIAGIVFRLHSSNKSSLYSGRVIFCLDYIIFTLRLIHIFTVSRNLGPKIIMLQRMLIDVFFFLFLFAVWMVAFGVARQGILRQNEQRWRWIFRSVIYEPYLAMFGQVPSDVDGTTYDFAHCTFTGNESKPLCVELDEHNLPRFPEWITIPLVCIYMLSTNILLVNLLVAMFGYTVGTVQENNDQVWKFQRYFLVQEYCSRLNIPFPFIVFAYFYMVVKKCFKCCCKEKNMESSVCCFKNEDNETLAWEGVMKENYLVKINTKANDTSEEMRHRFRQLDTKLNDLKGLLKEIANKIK", "details": "background statement; cited from earlier work"}, "[6]": {"target": "TRPA1 (Homo sapiens, UniProt O75762)", "sequence (O75762 whole entry, species assumed)": "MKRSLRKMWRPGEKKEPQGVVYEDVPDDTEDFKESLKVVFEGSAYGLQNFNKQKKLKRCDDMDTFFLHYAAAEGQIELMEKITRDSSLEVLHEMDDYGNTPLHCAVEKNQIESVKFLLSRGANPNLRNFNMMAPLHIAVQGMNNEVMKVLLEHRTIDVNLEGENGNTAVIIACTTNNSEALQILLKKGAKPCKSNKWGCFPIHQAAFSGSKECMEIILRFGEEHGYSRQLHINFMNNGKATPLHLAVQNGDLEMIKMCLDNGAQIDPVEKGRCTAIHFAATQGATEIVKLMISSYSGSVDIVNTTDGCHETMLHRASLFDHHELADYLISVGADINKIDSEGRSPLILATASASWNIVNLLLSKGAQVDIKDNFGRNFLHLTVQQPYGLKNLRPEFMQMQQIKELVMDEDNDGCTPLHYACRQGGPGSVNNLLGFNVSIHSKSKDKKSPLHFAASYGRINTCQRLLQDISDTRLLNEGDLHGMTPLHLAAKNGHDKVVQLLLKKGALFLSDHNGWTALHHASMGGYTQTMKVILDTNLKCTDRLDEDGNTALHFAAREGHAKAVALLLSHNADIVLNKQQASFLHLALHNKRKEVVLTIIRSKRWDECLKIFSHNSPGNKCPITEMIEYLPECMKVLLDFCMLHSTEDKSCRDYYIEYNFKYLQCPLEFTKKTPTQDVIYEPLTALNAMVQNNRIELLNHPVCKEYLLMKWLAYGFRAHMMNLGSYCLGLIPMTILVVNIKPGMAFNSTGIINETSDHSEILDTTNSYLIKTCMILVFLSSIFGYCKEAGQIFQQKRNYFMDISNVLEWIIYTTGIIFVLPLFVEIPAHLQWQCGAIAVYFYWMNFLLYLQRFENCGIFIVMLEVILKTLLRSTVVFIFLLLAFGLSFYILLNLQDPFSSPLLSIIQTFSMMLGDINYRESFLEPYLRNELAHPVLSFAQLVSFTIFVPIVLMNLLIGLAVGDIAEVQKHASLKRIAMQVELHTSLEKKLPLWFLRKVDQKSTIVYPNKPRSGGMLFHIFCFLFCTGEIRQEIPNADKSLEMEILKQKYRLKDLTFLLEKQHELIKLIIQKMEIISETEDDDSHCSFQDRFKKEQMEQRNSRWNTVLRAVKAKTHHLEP", "details": "background statement; read-out: EC50 for activation of TRPA1; cited from earlier work"}, "[7]": {"target": "T1, hTRPA1 expressed in CHO cells (Homo sapiens, UniProt O75762)", "T1 construct": "expressed in transfected cells; host or cells: CHO cells", "T1 sequence (O75762 whole entry)": "as the sequence (O75762 whole entry, species assumed) above", "assay": "In vitro activity of hTRPA1 expressed in CHO cells (intracellular calcium, fluorescent dye)", "type": "cell-based", "set-up": "in vitro activity of hTRPA1, positive control efficacy: dose or concentration left out as unconfirmed"}, "[8]": {"assay": "Energy expenditure after ingestion in human subjects", "type": "in vivo", "experimental": "Human subjects were administered placebo, a cooling flavor, capsaicin, or cinnamaldehyde. The energy expenditure was measured over the eighty minutes following ingestion."}, "[9]": {"target": "TRPV1 (Homo sapiens, UniProt Q8NER1)", "sequence (Q8NER1 whole entry, species assumed)": "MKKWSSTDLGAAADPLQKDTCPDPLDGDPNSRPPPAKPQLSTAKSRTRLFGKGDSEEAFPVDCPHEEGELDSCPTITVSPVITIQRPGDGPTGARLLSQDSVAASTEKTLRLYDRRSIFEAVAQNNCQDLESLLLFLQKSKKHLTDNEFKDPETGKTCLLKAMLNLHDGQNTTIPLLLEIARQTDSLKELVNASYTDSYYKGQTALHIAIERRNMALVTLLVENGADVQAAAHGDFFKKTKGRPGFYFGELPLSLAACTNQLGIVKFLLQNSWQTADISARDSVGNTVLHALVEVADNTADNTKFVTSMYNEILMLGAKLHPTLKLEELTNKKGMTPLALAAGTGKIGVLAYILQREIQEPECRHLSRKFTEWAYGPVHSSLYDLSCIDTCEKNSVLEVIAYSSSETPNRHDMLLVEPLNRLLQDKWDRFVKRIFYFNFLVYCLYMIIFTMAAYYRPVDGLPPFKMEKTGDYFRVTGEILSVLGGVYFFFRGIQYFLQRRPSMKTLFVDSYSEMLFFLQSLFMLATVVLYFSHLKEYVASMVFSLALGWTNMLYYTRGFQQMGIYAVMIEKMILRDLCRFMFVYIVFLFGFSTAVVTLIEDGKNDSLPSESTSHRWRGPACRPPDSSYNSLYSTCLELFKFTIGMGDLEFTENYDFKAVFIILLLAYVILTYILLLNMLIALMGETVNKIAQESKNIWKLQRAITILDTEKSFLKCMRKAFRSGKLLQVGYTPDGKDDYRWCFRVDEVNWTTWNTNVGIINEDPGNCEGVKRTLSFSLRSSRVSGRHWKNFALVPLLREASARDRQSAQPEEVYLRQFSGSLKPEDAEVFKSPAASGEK", "details": "background statement; cited from earlier work"}, "[10]": {"details": "flavoring level of cinnamaldehyde judged significantly less intense than capsaicin"}}, "data": [{"smiles": "COc1cc(CNC(=O)CCCC/C=C/C(C)C)ccc1O", "note": "[capsaicin, reference compound]", "values": [{"measurement": "nose temperature", "setting": "[1]", "value": "increase nose temperatures"}, {"measurement": "participants who judged the taste intense to very intense", "setting": "[2]", "value": 87.9, "unit": "%"}, {"measurement": "AUC difference in chin temperature relative to placebo", "setting": "[3]; human subjects", "value": 25.26}]}, {"smiles": "O=CC=Cc1ccccc1", "note": "[cinnamaldehyde]", "values": [{"measurement": "nose temperature", "setting": "[1]", "value": "increase nose temperatures"}, {"measurement": "impact on sympathetic nervous system activity compared to capsaicin", "setting": "[3]; [10]", "value": "significantly higher impact"}, {"measurement": "AUC difference in chin temperature relative to placebo", "setting": "[3]; human subjects", "value": 34.072}, {"measurement": "chin temperature relative to baseline", "setting": "[3]; human subjects, over the eighty minutes following ingestion, FIG. 8", "value": "increases chin temperature for a prolonged time"}, {"measurement": "effect on fat oxidation compared to capsaicin", "setting": "[4]; [10]", "value": "equivalent effect"}, {"measurement": "postprandial fat oxidation compared to placebo", "setting": "[4]; human subjects, over the 90 minutes following ingestion, FIGS. 5 and 6", "value": "maintained at higher levels"}, {"measurement": "activation of TRPM8", "setting": "[5]", "value": "not"}, {"measurement": "EC50", "setting": "[6]", "value": "~10", "unit": "µM"}, {"measurement": "in vitro activity of hTRPA1, positive control efficacy", "setting": "[7]; according to a dose-response curve", "value": "maximum efficacy"}, {"measurement": "impact on energy expenditure compared to capsaicin", "setting": "[8]; [10]", "value": "significantly higher impact"}, {"measurement": "energy expenditure compared to placebo", "setting": "[8]; human subjects, over the eighty minutes following ingestion, FIGS. 3 and 4", "value": "increased"}, {"measurement": "activation of TRPV1", "setting": "[9]", "value": "not"}]}, {"smiles": "[Zn]", "note": "[zinc]", "values": [{"measurement": "zinc concentration required for synergy with cinnamaldehyde on TRPA1", "setting": "[7]; in vitro", "value": "< 1", "unit": "µM"}]}]}
